Measurements as given in paper PMC10139035, “Carborane-Containing Hydroxamate MMP Ligands for the Treatment of Tumors Using Boron Neutron Capture Therapy (BNCT): Efficacy without Tumor Cell Entry” (International Journal of Molecular Sciences, 2023).

Legend:
[1] = system: SCC VII tumor cells; experiment: Cytotoxicity: IC50, growth inhibition after 3 days of continuous exposure; assay type: cell-based; conditions: 3 days continuous exposure, read-out: IC50 (cell toxicity)
Description: Suspensions of 105 SCC VII cells/200 μL MEM containing 10% FCS (fetal calf serum) were incubated for 3 days in 96-well microplate with various concentrations of 1 and 2 (B1 and B2). After 3 days of exposure, the cell were washed with PBS and fixed with 70% ethanol. The SCC VII cells were stained with 5% Giemsa solution for 15 min. After removing the solution, the cells were dried in air and Giemsa stained cells were uniformized by the addition of 100 μL of alcohol. The optical absorbance at 595 nm was measured by optical densitometer.

[2] = system: SCC VII tumor cells; experiment: In vitro BNCT survival study, colony formation assay; assay type: cell-based
Description: SCC VII tumor cells were incubated and stabilized in a logarithmic subconfluent growth phase at 36 °C in a 5% carbon dioxide atmosphere in a 10 cm diameter tissue culture dishes (100 mm tissue culture dishes; Corning Glass Works, Corning, NY, USA) containing Eagle’s MEM containing 10% heat-inactivated fetal bovine serum and 2 mM L-glutamine. The U87 delta EGFR glioma cell line, kindly provided by Dr. H. Michiue (Okayama University, Okayama, Japan), which stably expressed the constitutively active EGFRvIII, was used in the colony formation assay. […] The thermal neutron fluence was determined by averaging two gold foils symmetrically attached to the surface of the Teflon tube along the direction of the incidence of the thermal neutrons. The neutron absorbed dose (Gy) was calculated using the flux-to-dose conversion factor [61]. […] Ten days later, the colonies were fixed with 70% ethanol and stained with 5% Giemsa solution for quantitative visualization by the naked eye.

[3] = system: U87 delta EGFR glioma cells; experiment: as above; assay type: cell-based; conditions: for Survival rate: 20 ppm of 10B in BPA; for Thermal neutron fluence yielding the D37 value: BPA 20 ppm 10B
Description: SCC VII tumor cells were incubated and stabilized in a logarithmic subconfluent growth phase at 36 °C in a 5% carbon dioxide atmosphere in a 10 cm diameter tissue culture dishes (100 mm tissue culture dishes; Corning Glass Works, Corning, NY, USA) containing Eagle’s MEM containing 10% heat-inactivated fetal bovine serum and 2 mM L-glutamine. The U87 delta EGFR glioma cell line, kindly provided by Dr. H. Michiue (Okayama University, Okayama, Japan), which stably expressed the constitutively active EGFRvIII, was used in the colony formation assay. The cells were maintained in Dulbecco’s modified Eagle’s medium (DMEM; FUJIFILM Wako Pure Chemical Corporation, Richmond, VA, USA with 10% fetal bovine serum (FBS), penicillin, and streptomycin at 37 °C in a humidified atmosphere containing 5% CO2. The stock solutions of B1 and B2 were obtained by dissolving 6 mg of them in 1 ml DMSO, respectively. For SCC VII cells, after adding 100 μL of a boron solution, the cells were incubated for boron loading into tumor cells for 5 h. […] The ^10B (0.143 ppm ^10B for 1 (B1) and 0.101 ppm for 2 (B2) in the medium was reconfirmed by PGS (prompt γ spectroscopy) in the SCC VII colony forming assay. After boron loading, the cells were trypsinized and washed three times by PBS, and 5 × 10^3 cells/mL MEM (FCS+) were irradiated with thermal neutrons in column-shaped Teflon tubes (1 × 3 cm). […] The irradiation times were 0, 15, 30 and 45 min. The thermal neutrons flux was 1.8 × 10^9 cm^−2·s^−1. The thermal neutron fluence was determined by averaging two gold foils symmetrically attached to the surface of the Teflon tube along the direction of the incidence of the thermal neutrons. The neutron absorbed dose (Gy) was calculated using the flux-to-dose conversion factor [61]. The chemical composition of the tumors was assumed to be 10.7% hydrogen, 12.1% carbon, 2% nitrogen, 71.4% oxygen, and 3.8% others. The γ-ray dose rate, including secondary γ-rays, was 1.0 × 10^−2 Gy·min^−1, according to a thermoluminescence dosimeter attached to the surface of a Teflon tube containing 1 mL MEM. After thermal neutron exposure, 300 or 900 cells were placed in three Corning 60 mm tissue culture dishes containing 6 mL MEM to examine colony formation. Ten days later, the colonies were fixed with 70% ethanol and stained with 5% Giemsa solution for quantitative visualization by the naked eye.

[4] = molecular target: T1, MMP-2 (Homo sapiens, UniProt P08253); experiment: MMP-2 fluorometric inhibitor screening kit assay; conditions: read-out: IC50 MMP-2; triplicate, S.D.
T1 sequence (P08253 110-660): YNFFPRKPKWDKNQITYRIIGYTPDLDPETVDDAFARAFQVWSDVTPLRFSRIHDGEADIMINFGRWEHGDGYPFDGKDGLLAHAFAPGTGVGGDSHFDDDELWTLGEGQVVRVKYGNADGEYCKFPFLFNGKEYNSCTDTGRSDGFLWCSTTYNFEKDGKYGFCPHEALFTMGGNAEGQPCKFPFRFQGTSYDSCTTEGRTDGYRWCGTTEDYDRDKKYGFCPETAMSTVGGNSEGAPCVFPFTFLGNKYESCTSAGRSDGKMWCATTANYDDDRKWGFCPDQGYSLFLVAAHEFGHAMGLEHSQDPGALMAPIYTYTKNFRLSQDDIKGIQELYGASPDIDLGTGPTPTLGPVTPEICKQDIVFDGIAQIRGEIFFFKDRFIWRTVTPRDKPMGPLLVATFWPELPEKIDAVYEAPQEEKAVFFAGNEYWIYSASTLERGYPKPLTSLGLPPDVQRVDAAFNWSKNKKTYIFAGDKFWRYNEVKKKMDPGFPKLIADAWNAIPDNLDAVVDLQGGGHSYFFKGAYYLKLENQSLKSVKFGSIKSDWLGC
Description: (§1) MMP-2, MMP-9, and MMP-13 were assayed for inhibition using the respective abcam: ab139447, ab139449, and ab139451 Inhibitor Screening Kits. The supplied kits were adaptable to a microplate reader protocol designed for observing a fluorometric change associated with the cleavage of substrate analog at 37 °C. Briefly, each assay or control included a combined volume of 100 µL. […] The enzymes were then diluted in the assay buffer and 20 µL of each was added to give an assay concentrations of 0.042 nM (MMP-2), 1.9 nM (MMP-9), and 1.86 nM (MMP-13). […] The reaction was excited at 328 nm and emission detected at 420 nm. Fluorescence was measured every 60 s for a total of 960 s.
(§2) For each assay, data were truncated at 1000 s and offsets were applied to bring the initial fluorescence of each assay to zero. Replicate data for assays of individual inhibitor concentrations were plotted in KaleidaGraph (Synergy Software) for comparison and obvious outliers were culled from the analysis. The remaining data were averaged to yield one trace for each inhibitor concentration. The average data were combined into a dataset that included all assayed inhibitor concentrations for each MMP paralog. […]
(§3) The error was calculated by propagating the error for ratios of rate constants derived from fitting.

[5] = molecular target: MMP-9 (Homo sapiens, UniProt P14780); experiment: MMP-9 fluorometric inhibitor screening kit assay; conditions: read-out: IC50 MMP-9; triplicate, S.D.
Sequence of MMP-9 (P14780 94-707): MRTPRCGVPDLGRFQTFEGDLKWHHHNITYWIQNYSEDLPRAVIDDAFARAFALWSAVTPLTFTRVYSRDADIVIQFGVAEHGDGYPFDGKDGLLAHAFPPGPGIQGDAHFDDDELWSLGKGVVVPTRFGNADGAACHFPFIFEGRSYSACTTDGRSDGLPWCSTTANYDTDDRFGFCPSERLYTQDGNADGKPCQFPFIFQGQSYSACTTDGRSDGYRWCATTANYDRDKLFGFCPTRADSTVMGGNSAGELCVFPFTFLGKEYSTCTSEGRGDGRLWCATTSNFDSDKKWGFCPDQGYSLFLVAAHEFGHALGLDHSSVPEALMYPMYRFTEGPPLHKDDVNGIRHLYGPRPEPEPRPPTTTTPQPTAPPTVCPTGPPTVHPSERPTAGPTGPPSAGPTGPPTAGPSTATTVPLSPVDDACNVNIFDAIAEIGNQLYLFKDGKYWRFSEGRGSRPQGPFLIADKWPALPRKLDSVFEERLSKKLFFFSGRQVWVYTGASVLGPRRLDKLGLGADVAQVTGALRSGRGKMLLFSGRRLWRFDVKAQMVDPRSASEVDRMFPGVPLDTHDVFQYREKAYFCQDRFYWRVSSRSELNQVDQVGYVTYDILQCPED
Description: as §1, §2, §3

Compound | IC50 [1] [µM] | D37 absorbed dose (dose used to inhibit 63% colony formation) ([2]; SCC VII after in vitro BNCT, pre-incubation 0.143 ppm 10B (1), 0.101 ppm 10B (2)) [Gy] | Thermal neutron fluence yielding the D37 value ([2]; SCC VII, BPA 20 ppm 10B, 4 0.48 ppm 10B (Figure 9)) | Survival rate ([3]; thermal neutron fluence 2.7 × 10^12 cm^−2) [%] | Survival rate ([3]; thermal neutron fluence […] 10^12 cm^−2) [%] | Thermal neutron fluence yielding the D37 value ([3]; U87 MG delta EGFR, 4 0.48 ppm 10B (Figure 8)) | Thermal neutron fluence yielding the D37 value ([3]; U87 delta EGFR, 2 (B2) 0.7 ppm 10B (Figure 7)) | IC50 [4] [µM] | IC50 [5] [µM]
N[C@@H](Cc1ccc(B(O)O)cc1)C(=O)O [BPA, L-boronophenylalanine, reference compound] | 25500 | 0.82 | 6.0 × 10^11 | 6.2 ± 1.4 | 24.2 ± 7.7 | 1.2 × 10^12 | 1.0 × 10^12 |  | 
COc1ccc(S(=O)(=O)N(CC(=O)NO)CC(C)C)cc1 [NNGH, N-isobutyl-N-(4-methoxyphenylsulfonyl)glycyl hydroxamic acid, reference compound] |  |  |  |  |  |  |  | 0.0085 ± 0.0011 | 0.0028 ± 1.4e-05
